Measured values from patent US20250134952A1, “METHODS FOR IMPROVING THE EFFICACY OF HDAC INHIBITOR THERAPY AND PREDICTING THE RESPONSE TO TREATMENT WITH HDAC INHIBITOR” (INSTITUT NATIONAL DE LA SANTÉ ET DE LA RECHERCHE MÉDICALE, priority 2021, published 2025).

Columns and labels:
p21 (CDKN1a) = p21 (CDKN1a) expression by real-time PCR; format: cell-based, human; details: 100 nM TSA, 24 h
Procedure: (A) Representative confocal sections of MCF7shctrl and shTau cells untreated or treated with 100 nM TSA for 24 h. […] (B) Quantification of HP1α clusters per nuclei visualized as described previously and realized on three independent experiments. (C) GADD45a and (D) p21 (CDKN1a) expression in MCF7shctrl and shTau cells untreated or treated with 100 nM TSA for 24 h were analyzed by real-time PCR and normalized to RPLO. Results are expressed, relative to the basal activity set to 1, as the mean±SD of three independent assays. (E) Tau tethering prevents adjacent reporter gene activity induced by TSA. GAL4UAS responsive luciferase reporter Hela stable cell line was transfected with GAL4DBD (GAL4) or GAL4DBD-Tau4R and then, 24 h later, treated with TSA (600 nM) for 24 h. The luciferase activity was determined as described in the Materials and Methods. (F) Ectopic Tau4R expression prevents adjacent reporter gene activity induced by TSA. […] The luciferase activity was determined as described in the Materials and Methods. […]
Total RNA was prepared using RNeasyMinikit (Qiagen). Reverse transcription (RT) was performed using random hexamers as recommended by the manufacturer (Applied Biosystems). cDNAs were analyzed by PCR amplification using the TaqMan PCR master mix (Applied Biosystems) and a mix of RPLO primers and probes. […]

[1] = tested on: MCF7shctrl and MCF7shTau subclones; experiment: Cell death by staining and flow cytometric analysis (Zombie NIR); format: cell-based, human; details: 100 nM TSA, 48 hours
Procedure: FIG. 1: Tau inhibition increases MCF7 breast cancer cell line sensitivity to TSA. (A) Tau protein expression in MCF7, MCF7shctrl and shTau were quantify by Elisa. (B) Effect of 100 nM TSA (48 h) on cell death in the MCF7shctrl and MCF7shTau subclones. Cell death was determined by staining and flow cytometric analysis as described in the materials and methods. (C) Effect of 100 nM TSA (48 h) on apoptosis in the MCF7shctrl and MCF7shTau subclones. Apoptosis was determined by flow cytometric analysis of the PI-positive and Annexin-V-positive cells as described in the materials and methods. (D) Cell cycle distribution was determined by FACS analysis of combined propidium iodide and EdU staining in MCF7shctrl and MCF7shTau in the absence or presence 100 nM TSA, 48 h. Data are mean±SD **P<0.01***P<0.001. […]
SH-SY5Y human neuroblastoma cells expressing Tau4R tagged with the streptavidin-binding peptide (SBP) (referred as SH-SY5Y-(SBP)Tau4R) (Chauderlier et al., 2018), SH-SY5Y-Tet-on-Tau4R, Hela cells, MCF7 and MDA-MB-231 were cultured in Dulbecco's Modified Eagle's Medium with 10% fetal bovine serum, 2 mM L-glutamine and 50 U/ml penicillin/streptomycin (Gibco) at 37° C. in 5% CO2 humidified air. […] For stable clones, luciferase activities were measured using the luciferase assay system (Promega) and normalized against protein concentration. […]

## CC(/C=C/C(=O)NO)=C\[C@@H](C)C(=O)c1ccc(N(C)C)cc1 [TSA, 2,4-Heptadienamide, 7-[4-(dimethylamino)phenyl]-N-hydroxy-4,6-dimethyl-7-oxo-, (2E,4E,6R)-]
p21 (CDKN1a); MCF7shctrl cells, relative to basal
  p21 induction (RT-qPCR): 2.5 fold
p21 (CDKN1a); cells with reduced Tau expression (MCF7shTau) vs MCF7shctrl
  p21 upregulation by TSA: exacerbated
[1]; Tau-knockdown cells (MCF7shTau)
  number of dead cells: > 50%
[1]; sh-ctrl cells (MCF7shctrl)
  number of dead cells: 38%
